Source: the supplement of paper PMC6045584
± gives the standard deviation of the averaged measurements.

Legend:
[1] = compound: C[C@]12CC[C@H](O)CC1=CC[C@@H]1[C@@H]2CC[C@]2(C)C(c3cccnc3)=CC[C@@H]12 [ABIRATERONE]; experiment: surviving fraction relative to DMSO-only wells; higher = less growth inhibition; conditions: exposure time: 5 days
In short: (§1)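 At 250–500 cells per well in 384-well plates, log-phase tumour cell lines were seeded and, 24 hours on, exposed continuously for five days to inhibitors at 0.5, 1, 5, 10, 50, 100, 500 and 1000 nM. Viability readout was CellTiter-Glo luminescence, reported as surviving fraction normalised to the median of DMSO-only wells.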

[2] = compound: COc1cc2c(Oc3ccc(NC(=O)C4(C(=O)Nc5ccc(F)cc5)CC4)cc3F)ccnc2cc1OCCCN1CCOCC1 [FORETINIB]; experiment: as above; conditions: exposure time: 5 days
In short: as §1

[3] = compound: NS(=O)(=O)OC[C@@H]1C[C@@H](n2ccc3c(N[C@H]4CCc5ccccc54)ncnc32)C[C@@H]1O [MLN-4924]; experiment: area under dose-response curve of surviving fraction (unscaled, Aref=0) (surviving fraction x log10(nM)); higher = more resistant; conditions: exposure time: 5 days; dose range 0.5-1000 nM
In short: (§2)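 Each tumour cell line was screened three times in 384-well plates, receiving eight inhibitor concentrations from 0.5 to 1000 nM for five days. CellTiter-Glo luminescence gave viability, normalised to DMSO-only wells. Using the drc R package, surviving fractions were fitted with 3-parameter logistic dose-response curves, and the unscaled activity area over log10 dose (Aref = 0) was taken as the area under the curve.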

[4] = compound: Cn1nnc2c(C(N)=O)ncn2c1=O [TEMOZOLOMIDE]; experiment: as above; conditions: exposure time: 5 days; dose range 0.5-1000 nM
In short: as §2

[5] = compound: CNCc1ccc(-c2[nH]c3cc(F)cc4c3c2CCNC4=O)cc1; experiment: as above; conditions: exposure time: 5 days; dose range 0.5-1000 nM
In short: as §2

[6] = compound: Cc1nc(Nc2ncc(C(=O)Nc3c(C)cccc3Cl)s2)cc(N2CCN(CCO)CC2)n1 [DASATINIB]; experiment: as above; conditions: exposure time: 5 days; dose range 0.5-1000 nM
In short: as §2

| Test System | surviving fraction ([1]; 0.5 nM) | surviving fraction ([1]; 1 nM) | surviving fraction ([1]; 5 nM) | surviving fraction ([1]; 10 nM) | surviving fraction ([1]; 50 nM) | surviving fraction ([1]; 100 nM) | surviving fraction ([1]; 500 nM) | surviving fraction ([1]; 1000 nM) | surviving fraction ([2]; 0.5 nM) | surviving fraction ([2]; 1 nM) | surviving fraction ([2]; 5 nM) | surviving fraction ([2]; 10 nM) | surviving fraction ([2]; 50 nM) | surviving fraction ([2]; 100 nM) | surviving fraction ([2]; 500 nM) | surviving fraction ([2]; 1000 nM) | area under dose-response curve [3] | area under dose-response curve [4] | area under dose-response curve [5] | area under dose-response curve [6] |
| --- | --- | --- | --- | --- | --- | --- | --- | --- | --- | --- | --- | --- | --- | --- | --- | --- | --- | --- | --- | --- |
| G292 BONE | 1.02 ± 0.028 | 0.994 ± 0.03 | 1.06 ± 0.037 | 1.04 ± 0.026 | 1.05 ± 0.038 | 1.05 ± 0.018 | 1.03 ± 0.034 | 1.01 ± 0.029 | 1.01 ± 0.049 | 0.963 ± 0.051 | 1.04 ± 0.015 | 1.02 ± 0.046 | 0.905 ± 0.03 | 0.839 ± 0.023 | 0.351 ± 0.018 | 0.171 ± 0.02 | 2.51 | 3.33 | 3.17 | 1.79 |
| HCC38 BREAST | 1.21 ± 0.22 | 1.24 ± 0.14 | 1.22 ± 0.31 | 1.29 ± 0.38 | 1.18 ± 0.41 | 1.32 ± 0.18 | 1.16 ± 0.12 | 1 ± 0.14 | 1.05 ± 0.18 | 1.01 ± 0.34 | 0.885 ± 0.2 | 1.11 ± 0.24 | 1.03 ± 0.41 | 0.901 ± 0.15 | 0.521 ± 0.077 | 0.428 ± 0.12 | 2.17 | 4.36 | 2.19 | 2.79 |
| HCC70 BREAST | 1.1 ± 0.069 | 1.02 ± 0.088 | 1.09 ± 0.026 | 1.11 ± 0.055 | 1.15 ± 0.13 | 1.14 ± 0.017 | 1.03 ± 0.076 | 0.949 ± 0.098 | 1.08 ± 0.04 | 1.13 ± 0.023 | 1.13 ± 0.043 | 1.11 ± 0.046 | 1.17 ± 0.066 | 1.2 ± 0.044 | 1.1 ± 0.1 | 0.718 ± 0.16 | 2.21 | 3.54 | 3.67 | 2.81 |
| HMLE3 BREAST | 0.965 ± 0.017 | 1.01 ± 0.04 | 1.04 ± 0.063 | 1.04 ± 0.051 | 1.12 ± 0.079 | 1.02 ± 0.084 | 1.02 ± 0.063 | 1.04 ± 0.04 | 1.08 ± 0.031 | 1.15 ± 0.075 | 1.11 ± 0.023 | 1.07 ± 0.011 | 0.913 ± 0.1 | 0.86 ± 0.054 | 0.558 ± 0.076 | 0.168 ± 0.023 | 2.48 | 3.48 |  | 2.46 |
| HMT3552 BREAST | 1.05 | 1.02 | 1.01 | 1.09 | 1.08 | 1.07 | 1.32 | 1.24 | 1.02 ± 0.069 | 1.03 ± 0.05 | 1.02 ± 0.017 | 0.928 ± 0.12 | 0.955 ± 0.058 | 0.971 ± 0.013 | 0.599 ± 0.034 | 0.114 ± 0.0027 | 2.14 | 3.67 | 2.94 | 1.53 |
| HS57T BREAST | 1.06 ± 0.023 | 1.16 ± 0.059 | 1.12 ± 0.038 | 1.1 ± 0.03 | 1.24 ± 0.06 | 1.17 ± 0.071 | 1.08 ± 0.031 | 1.04 ± 0.1 | 1.05 ± 0.066 | 1.09 ± 0.08 | 1.15 ± 0.03 | 1.07 ± 0.045 | 1.06 ± 0.06 | 1.02 ± 0.083 | 0.515 ± 0.039 | 0.47 ± 0.024 |  |  |  |  |
| HS578T BREAST | 1.06 ± 0.16 | 0.858 ± 0.12 | 0.945 ± 0.12 | 0.924 ± 0.2 | 1.04 ± 0.091 | 0.996 ± 0.051 | 0.985 ± 0.065 | 0.94 ± 0.037 | 1.01 ± 0.084 | 1.09 ± 0.079 | 1.2 ± 0.19 | 1.18 ± 0.038 | 1.16 ± 0.17 | 1.12 ± 0.21 | 0.655 ± 0.088 | 0.585 ± 0.039 | 2.37 | 3.09 | 2.93 | 1.56 |
